Results on eight compounds are retold here after ChEMBL document CHEMBL1201862, “PubChem BioAssay data set” (2004).

Each structure is given as a SMILES string.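 Five concentrations, 48 hours, 96-well plates. GI50 = concentration required for 50% inhibition of growth.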 Activity calls are given as the source filed them. Rule as the data show it: active = GI50 up to about 1.1 µM and inactive = higher. Where only a bound is given, the exact number is not on record here.

What all share (experiment): NCI-60 cell line screen, 48 h
In experiment [1] the test system is RPMI-8226.
The subject of experiment [2] is SK-MEL-5.
The subject of experiment [3] is UO-31.
The test system of experiment [4] is KM12.
Experiment [5] concerns OVCAR-3.
Experiment [6] has as its system K562.
Experiment [7] concerns SK-MEL-2.
Experiment [8] relates to T47D.
For experiment [9], the system named is CCRF-CEM.
Experiment [10] concerns PC-3.
Experiment [11] relates to OVCAR-4.
Experiment [12] deals with SR.
Experiment [13] has as its system 786-0.
Experiment [14] concerns MDA-N.
Experiment [15] relates to SF-295.
For experiment [16], the system named is CAKI-1.
Experiment [17] concerns M14.
Experiment [18] deals with IGROV-1.
The subject of experiment [19] is SF-268.

For `COC(=O)c1ccccc1C1CN=NC12Cc1ccccc1C2=O` (configuration not stated), the GI50 in [1] was 48 µM (inactive); in experiment [2], 42.4 µM (inactive); in experiment [3], 34.2 µM (inactive); in experiment [4], 58.1 µM (inactive); in [5] it was 40.5 µM (inactive); in experiment [6], 68.5 µM (inactive). In addition, the GI50 was > 100 µM (inactive) in [7]; 41.3 µM (inactive) in experiment [8]; > 100 µM (inactive) in experiment [9]; 34 µM (inactive) in experiment [10]; 52.4 µM (inactive) in [11]; > 100 µM (inactive) in [12]. Also, the GI50 in experiment [13] is > 100 µM (inactive); in experiment [14], > 100 µM (inactive); in experiment [15] it was > 100 µM (inactive); in [16], > 100 µM (inactive); in experiment [17], 68.1 µM (inactive); in [18], > 100 µM (inactive). In experiment [19], the GI50 was > 100 µM (inactive).
For `COC(=O)c1ccc(CCC2=CC(=O)C=CC2=O)cc1`, the GI50 was 1.8 µM (inactive) in experiment [1]; 12.9 µM (inactive) in experiment [2]; 7.36 µM (inactive) in experiment [3]; 11.9 µM (inactive) in [4]; 6.85 µM (inactive) in [5]; 2.37 µM (inactive) in experiment [6]. Besides, the GI50 in [7] is 16.4 µM (inactive); in [8], 2.94 µM (inactive); in [9], 0.603 µM (active); in [10], 12.1 µM (inactive); in experiment [11] it was 17.7 µM (inactive); in experiment [12] it was 2.49 µM (inactive). Also, the GI50 in experiment [13] was 2.41 µM (inactive); in experiment [14], 12.5 µM (inactive); in [15] it was 16.6 µM (inactive); in experiment [16] it was 4.11 µM (inactive); in [17], 15.1 µM (inactive); in experiment [18] it was 14.6 µM (inactive). Moreover, in experiment [19], the GI50 was 15 µM (inactive).
Turning to `OCC1CCCC1O` (configuration not stated), the GI50 in experiment [1], in [2], in experiment [3], in experiment [4], in experiment [5] and in experiment [6] was > 100 µM (inactive) in each case. Further, the GI50 in experiment [7], in [8], in experiment [9], in experiment [10], in [11] and in experiment [12] was > 100 µM (inactive) throughout. For the same compound, the GI50 in [13], in experiment [14], in experiment [15], in experiment [16], in experiment [17] and in experiment [18] was > 100 µM (inactive) each time. Also, the GI50 in experiment [19] is > 100 µM (inactive).
On to `CC(C)C1OC(=O)C(Cc2ccccc2)N(C)C(=O)C(C(C)C)OC(=O)C(Cc2ccccc2)N(C)C(=O)C(C(C)C)OC(=O)C(Cc2ccccc2)N(C)C1=O` (configuration not stated), for which the GI50 was 0.489 µM (active) in experiment [1]; 0.53 µM (active) in [2]; 0.307 µM (active) in [3]; 0.501 µM (active) in [4]; 0.598 µM (active) in experiment [5]; 0.838 µM (active) in [6]. Moreover, the GI50 in experiment [7] was 0.628 µM (active); in experiment [8], 1.05 µM (active); in experiment [9], 0.373 µM (active); in [10], 0.687 µM (active); in experiment [11] it was 0.463 µM (active); in [12], 1.89 µM (inactive). Also, the GI50 was 1.17 µM (inactive) in experiment [13]; 0.815 µM (active) in [14]; 0.662 µM (active) in [15]; 0.979 µM (active) in experiment [16]; 0.713 µM (active) in experiment [17]; 1.03 µM (active) in experiment [18]. Moreover, the GI50 in experiment [19] was 1.4 µM (inactive).
On to `COc1ccc2c(c1)-c1c(c3ccccc3n1CCN1CCOCC1)CC2`, for which the GI50 in experiment [1] is 19.4 µM (inactive); in experiment [2], 14.5 µM (inactive); in experiment [3], 22.6 µM (inactive); in experiment [4] it was 11.5 µM (inactive); in experiment [5], 18.2 µM (inactive); in [6] it was 15.6 µM (inactive). In addition, the GI50 is 11 µM (inactive) in experiment [7]; 21.5 µM (inactive) in experiment [8]; 22.4 µM (inactive) in [9]; 14.8 µM (inactive) in [10]; 56.6 µM (inactive) in experiment [11]; 19.1 µM (inactive) in experiment [12]. The GI50 in [13] was 22.6 µM (inactive); in experiment [14] it was 36.7 µM (inactive); in experiment [15] it was 16 µM (inactive); in [16], 17.5 µM (inactive); in experiment [17], 35 µM (inactive); in experiment [18] it was 5.47 µM (inactive). In addition, in experiment [19], the GI50 is 19 µM (inactive).
Take `CCc1ccc(CCC(=O)O)nc1`: the GI50 in experiment [1], in [2], in experiment [3], in experiment [4], in [5] and in experiment [6] was > 100 µM (inactive) each time. Further, the GI50 in experiment [7], in experiment [8], in experiment [9], in [10], in experiment [11] and in experiment [12] was > 100 µM (inactive) in each case. Also, the GI50 in [13], in [14], in [15], in [16], in experiment [17] and in experiment [18] was > 100 µM (inactive) each time. Besides, in experiment [19], the GI50 was > 100 µM (inactive).
`COc1ccc(CSCc2cc(OC)c(OC)c(OC)c2)cc1`: the GI50 was > 55 µM (inactive) in [1]; 21.2 µM (inactive) in experiment [2]; > 100 µM (inactive) in experiment [3]; 27.1 µM (inactive) in [4]; > 100 µM (inactive) in experiment [5]; 33.8 µM (inactive) in experiment [6]. Moreover, the GI50 is > 100 µM (inactive) in experiment [7]; 8 µM (inactive) in experiment [8]; > 100 µM (inactive) in experiment [9]; > 31.6 µM (inactive) in experiment [10]; > 100 µM (inactive) in experiment [11]; > 100 µM (inactive) in [12]. Further, the GI50 in [13] was > 100 µM (inactive); in experiment [14] it was 7.26 µM (inactive); in experiment [15], > 52.4 µM (inactive); in experiment [16], > 100 µM (inactive); in experiment [17], > 54.5 µM (inactive); in experiment [18], > 100 µM (inactive). For the same compound, the GI50 in experiment [19] was > 100 µM (inactive).
Regarding `COC(=O)c1ccc(O)c2nc3c(C=O)c(O)cc(O)c3nc12` [LOMOFUNGIN], the GI50 in [1] is 0.811 µM (active); in experiment [2], 0.953 µM (active); in [3], 0.225 µM (active); in experiment [4] it was 1.3 µM (inactive); in [5] it was 4.65 µM (inactive); in experiment [6], 0.0847 µM (active). In addition, the GI50 in experiment [7] was 2.9 µM (inactive); in experiment [8], 0.397 µM (active); in experiment [9], 0.259 µM (active); in [10] it was 0.661 µM (active); in experiment [11], 2.76 µM (inactive); in [12] it was 10.6 µM (inactive). In addition, the GI50 in [13] was 1.73 µM (inactive); in experiment [14] it was 1.67 µM (inactive); in experiment [15] it was 0.0441 µM (active); in experiment [16], 0.345 µM (active); in [17], 0.592 µM (active); in [18] it was 0.206 µM (active). Also, the GI50 in experiment [19] was 0.428 µM (active).
